Test results reported in patent publication US20230065799A1, “METHOD FOR ATTRIBUTING OLFACTORY TONALITIES TO OLFACTORY RECEPTOR ACTIVATION AND METHODS FOR IDENTIFYING COMPOUNDS HAVING THE ATTRIBUTED TONALITIES” (FIRMENICH SA, priority 2019, published 2023).

Assays:
OR7A17 = molecular target: T1, OR7A17 (Homo sapiens, UniProt O14581); test: OR7A17 cell-based cAMP HTRF assay; settings: dose-response, 100% = full agonist
T1 construct: Lucy (cleavable signal peptide) (N); FLAG (N); Rho (first 20 aa of bovine rhodopsin) (N); expressed in transfected cells
T1 sequence (O14581 1-309): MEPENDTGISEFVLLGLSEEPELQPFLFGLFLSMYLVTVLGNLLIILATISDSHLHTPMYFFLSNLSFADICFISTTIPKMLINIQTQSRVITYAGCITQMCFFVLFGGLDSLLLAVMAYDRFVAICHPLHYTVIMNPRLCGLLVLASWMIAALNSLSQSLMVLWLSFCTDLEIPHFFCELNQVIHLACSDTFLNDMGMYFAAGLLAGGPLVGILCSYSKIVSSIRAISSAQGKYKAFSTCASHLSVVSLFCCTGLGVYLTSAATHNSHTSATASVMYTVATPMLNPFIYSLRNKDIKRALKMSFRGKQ

OR5A1 = molecular target: T2, OR5A1 (Homo sapiens, UniProt Q8NGJ0); test: OR5A1 cell-based cAMP HTRF assay; settings: dose-response; 100% = full agonist
T2 construct: Lucy (cleavable signal peptide) (N); FLAG (N); Rho (first 20 aa of bovine rhodopsin) (N); expressed in transfected cells
T2 sequence (Q8NGJ0 1-315): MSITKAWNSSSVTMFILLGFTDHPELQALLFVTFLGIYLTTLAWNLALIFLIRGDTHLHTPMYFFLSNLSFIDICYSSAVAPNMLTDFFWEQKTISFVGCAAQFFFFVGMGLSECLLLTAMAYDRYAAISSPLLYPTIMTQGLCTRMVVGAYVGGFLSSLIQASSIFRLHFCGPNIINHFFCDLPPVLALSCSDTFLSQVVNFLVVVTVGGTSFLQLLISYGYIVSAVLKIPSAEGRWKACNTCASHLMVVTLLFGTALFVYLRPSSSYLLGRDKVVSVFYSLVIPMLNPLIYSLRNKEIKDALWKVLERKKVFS

OR8B3 = molecular target: T3, OR8B3 (Homo sapiens, UniProt Q8NGG8); test: OR8B3 cell-based cAMP HTRF assay; settings: dose-response, 100% = full agonist; for Emax: read-out: OR8B3 % Efficacy
T3 construct: Lucy (cleavable signal peptide) (N); FLAG (N); Rho (first 20 aa of bovine rhodopsin) (N); expressed in transfected cells
T3 sequence (Q8NGG8 1-313): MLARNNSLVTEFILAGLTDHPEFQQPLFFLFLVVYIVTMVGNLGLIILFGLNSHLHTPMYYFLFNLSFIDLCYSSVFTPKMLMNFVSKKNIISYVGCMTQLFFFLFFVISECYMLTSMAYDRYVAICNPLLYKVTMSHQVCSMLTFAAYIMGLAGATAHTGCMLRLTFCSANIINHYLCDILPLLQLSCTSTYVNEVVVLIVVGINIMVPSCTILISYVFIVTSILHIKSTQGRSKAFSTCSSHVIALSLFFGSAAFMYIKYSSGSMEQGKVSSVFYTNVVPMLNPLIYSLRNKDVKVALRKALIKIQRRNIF

OR11A1 = molecular target: T4, OR11A1 (Homo sapiens, UniProt Q9GZK7); test: OR11A1 cell-based cAMP HTRF assay in HEK293T cells; settings: for Emax: HEK-293T, read-out: OR11A1 % Efficacy; for Emax / OR11A1 % Efficacy: dose-response, 100% = full agonist
T4 construct: FLAG (N); Rho (first 20 aa of bovine rhodopsin) (N); expressed in transfected cells
T4 sequence (Q9GZK7 1-315): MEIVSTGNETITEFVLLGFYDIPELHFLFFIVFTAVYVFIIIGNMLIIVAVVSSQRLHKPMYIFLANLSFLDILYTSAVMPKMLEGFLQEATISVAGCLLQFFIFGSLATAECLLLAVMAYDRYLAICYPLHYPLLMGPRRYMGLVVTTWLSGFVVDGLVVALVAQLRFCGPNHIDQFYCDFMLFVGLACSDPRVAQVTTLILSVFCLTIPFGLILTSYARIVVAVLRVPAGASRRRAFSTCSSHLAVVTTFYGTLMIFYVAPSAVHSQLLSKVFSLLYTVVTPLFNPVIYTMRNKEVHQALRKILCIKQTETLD
Description: The molecular receptive range of the human odorant receptor OR11A1 (SEQ ID NO. 11) was tested by performing a large scale screening with a chemically and organoleptically diverse volatile compound library comprising approximately 800 compounds. Using a cell-based assay, OR11A1 was tested in an HEK293T cell line wherein the endogenous RTP1 gene has been activated and the odorant receptor chaperone was expressed (WO2016/201153 A1). Cells were co-transfected with the Flag-Rho-tagged receptor and the canonical olfactory G-protein Golf, and exposed to a single concentration of each test compound, tested individually. Receptor activity was detected by measuring the cAMP increase in the cytosol using an HTRF (Homogenous Time-Resolved Fluorescence unit) based kit (CisBio, cAMP dynamic 2 kit, 62AM4PEJ).
First, 300 mM stock solutions for 798 test compounds were made in pure DMSO. The stock solutions for each compound were further diluted to a final test concentration of 300 μM. The final concentration of DMSO was 0.1%, and had no visible effect on the cells. Each compound was presented to a cell line expressing the OR11A1 olfactory receptor. The quality of this high-throughput screening (HTS) process was determined and the window variability and signal reliability were assessed by calculating the Z′ value of each plate (the average Z′ value per plate was 0.72±0.12, well within the required quality standards between 0.5 and 1). The result of this single concentration activation screen is shown in FIG. 3, where hits are highlighted in light grey dots.
In a subsequent step using the same cell-based assay described above, the candidate hits were confirmed to be true agonists (activators) by performing dose-response experiments as shown in FIG. 4 for a subset of the best hits. […] Both sensitivity (potency) and activation strength (efficacy) were calculated from the curves, as a measure of EC50 (the concentration required to reach half-maximal activation level) and Span (the assay window span between baseline activity level and activation saturation plateau), respectively. These values were used to represent the molecular receptive range of OR11A1 according to the potency (X axis) and efficacy (Y axis) in FIG. 5. A partial agonist, Tonalide, is also listed. The […] agonists cover distinct perfumery tonalities: woody (Patchouli Alcohol), musky (Vulcanolide, Tonalide), and camphorous (Fenchyl Alcohol), Table 2. Taken together, the data depict the diversity of both the organoleptic tonalities and chemical structures of compounds capable of activating OR11A1, congruent with results described in WO2016/201152 A1 (musk) and EP2832347A1.(patchouli). The OR11A1 activity however was not associated with the tonalities of musk (WO2016/201152 A1) or patchouli (EP2832347A1) specifically but rather the earthy facet thereof. In fact, the single commonality between these compounds was the earthy tonality, which is semantically captured by the following descriptors: earthy, humus and earthy-moss. These compounds are neither all musks nor patchouli but they all are earthy.

OR5AU1 = molecular target: T5, OR5AU1 (Homo sapiens, UniProt Q8NGC0); test: OR5AU1 cell-based cAMP HTRF assay; settings: for Emax: read-out: OR5AU1 % Efficacy; for Active OR/Linked Tonality: OR5AU1 (Lactonic Coconut): receptor listed = activated by the compound
T5 construct: Lucy (cleavable signal peptide) (N); FLAG (N); Rho (first 20 aa of bovine rhodopsin) (N); expressed in transfected cells
T5 sequence (Q8NGC0 52-362): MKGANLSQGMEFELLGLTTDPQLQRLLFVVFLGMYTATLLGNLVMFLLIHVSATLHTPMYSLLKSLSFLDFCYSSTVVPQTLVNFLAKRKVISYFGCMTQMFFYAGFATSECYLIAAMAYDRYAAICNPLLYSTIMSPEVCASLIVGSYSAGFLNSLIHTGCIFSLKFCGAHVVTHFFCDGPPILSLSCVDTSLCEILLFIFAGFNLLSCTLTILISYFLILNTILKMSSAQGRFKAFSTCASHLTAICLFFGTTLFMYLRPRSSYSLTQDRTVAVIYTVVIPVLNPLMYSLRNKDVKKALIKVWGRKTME

[1] = dose-response, 100% = full agonist

## 1-(2,3,8,8-tetramethyl-1,3,4,6,7,8~{a}-hexahydronaphthalen-2-yl)ethanone; 1-(2,3,8,8-tetramethyl-1,3,5,6,7,8~{a}-hexahydronaphthalen-2-yl)ethanone; 1-(2,3,8,8-tetramethyl-1,3,4,5,6,7-hexahydronaphthalen-2-yl)ethanone [Derambrene]
OR7A17
  OR7A17 % Efficacy: 83%

## 1-(4,8-dimethyl-12-methylidenecyclododeca-4,8-dien-1-yl)ethanone; 1-(2,6,10-trimethylcyclododeca-1,5,9-trien-1-yl)ethanone; 1-(2,6,10-trimethylcyclododeca-2,5,9-trien-1-yl)ethanone [Trimofix]
OR7A17
  OR7A17 % Efficacy: 74%

## 4-(2,6,6-trimethylcyclohexen-1-yl)but-3-en-2-one; 4-(2,6,6-trimethylcyclohex-2-en-1-yl)but-3-en-2-one [Violette AT]
OR5A1
  OR5A1 % Efficacy: 78%

## 9-ethylidene-3-oxatricyclo[6.2.1.0^{2,7}]undecan-4-one; 10-ethylidene-3-oxatricyclo[6.2.1.0^{2,7}]undecan-4-one [Florex]
OR8B3
  OR8B3 % Efficacy: 74%

## CC(=O)/C(C)=C/C1C(C)=CCCC1(C)C (racemic) [Methyl ionone gamma, (+−)-(e)-3-methyl-4-(2,6,6-trimethyl-2-cyclohexen-1-yl)-3-buten-2-one]
OR7A17; read-out: OR7A17 % Efficacy
  Emax: 65%

## CC1(C)CCCC(C)(C)C1=O [2,2,6,6-tetramethyl-1-cyclohexanone]
OR11A1
  OR11A1 agonism in dose-response experiments: did not yield any significant dose-response

## O=c1ccc2ccccc2o1 [Coumarin, chromen-2-one]
OR8B3
  Emax: 95%

## CCCCCC1CCCC1=O (stereo not drawn) [Delphone, 2-pentylcyclopentan-1-one]
OR5AU1; [1]
  Emax: 80%

## CC=CCCC1CCCC(=O)O1 (stereo not drawn) [Delta Jasmolactone, 6-pent-3-enyloxan-2-one]
OR5AU1; [1]
  Emax: 92%
OR5AU1
  Active OR/Linked Tonality: OR5AU1 (Lactonic Coconut): OR5AU1/

## CCCCCC1CCCC(=O)O1 (stereo not drawn) [Delta decalactone, 6-pentyloxan-2-one]
OR5AU1; [1]
  Emax: 88%

## CC12CCC(C1)C(C)(C)C2O (stereo not drawn) [Fenchyl Alcohol, (1~{R},2~{R},4~{S})-1,3,3-trimethylbicyclo[2.2.1]heptan-2-ol]
OR11A1
  Emax: 86%

## CCCCCCC1CCC(=O)O1 (stereo not drawn) [Gamma Decalactone, 5-hexyloxolan-2-one]
OR5AU1
  Active OR/Linked Tonality: OR5AU1 (Lactonic Coconut): OR5AU1/

## CCCCC1CCC(=O)O1 (stereo not drawn) [Gamma Octalactone, 5-butyloxolan-2-one]
OR8B3
  Emax: 100%
OR5AU1
  Active OR/Linked Tonality: OR5AU1 (Lactonic Coconut): OR5AU1/

## CC1CCCC2(C)CCCCC12O (stereo not drawn) [Geosmin, (4~{S},8~{a}~{R})-4,8~{a}-dimethyl-1,2,3,4,5,6,7,8-octahydronaphthalen-4~{a}-ol]
OR11A1
  Emax: 100%

## CCCCC1CCCC(=O)O1 (stereo not drawn) [Nonalactone Delta, 6-butyloxan-2-one]
OR8B3
  Emax: 97%
OR5AU1
  Active OR/Linked Tonality: OR5AU1 (Lactonic Coconut): OR5AU1/

## O=C1CCC2CCCCC2O1 (stereo not drawn) [Octahydrocoumarine, 3,4,4~{a},5,6,7,8,8~{a}-octahydrochromen-2-one]
OR8B3
  OR8B3 % Efficacy: 95%

## CCCC1CCCC(=O)O1 (stereo not drawn) [Octalactone Delta, 6-propyloxan-2-one]
OR5AU1
  Active OR/Linked Tonality: OR5AU1 (Lactonic Coconut): OR5AU1/

## C[C@@H]1CC[C@]2(O)C(C)(C)[C@H]3CC[C@@]2(C)[C@@H]1C3 [Patchouli Alcohol, (1~{S},3~{S},6~{R},7~{R},8~{S})-2,2,6,8-tetramethyltricyclo[5.3.1,0^{3,8}]undecan-3-ol]
OR11A1
  OR11A1 % Efficacy: 83%

## CC(=O)c1cc2c(cc1C)C(C)(C)C(C)CC2(C)C (stereo not drawn) [Tonalide, 1-(3,5,5,6,8,8-hexamethyl-6,7-dihydronaphthalen-2-yl)ethanone]
OR11A1
  OR11A1 agonism in dose-response experiments: weak (partial) agonist
  Emax: 21%

## CC1(C)[C@H]2C[C@H]3CCC(=O)C=C3[C@@H]1C2 [Tricyclone, (1~{R},7~{R},9~{S})-10,10-dimethyltricyclo[7.1.1.0^{2,7}]undec-2-en-4-one]
OR8B3
  OR8B3 % Efficacy: 77%

## CCCCC[C@H]1OC(=O)C[C@H]1C [Tuberolide Ht, (4~{R},5~{R})-4-methyl-5-pentyloxolan-2-one]
OR5AU1; [1]
  OR5AU1 % Efficacy: 100%

## Cc1cc2c(cc1C=O)C(C)(C)[C@H](C)[C@@H](C)C2(C)C [Vulcanolide, (6~{R},7~{R})-3,5,5,6,7,8,8-heptamethyl-6,7-dihydronaphthalene-2-carbaldehyde]
OR11A1
  OR11A1 % Efficacy: 89%

## CCCCC1OC(=O)CC1C (stereo not drawn) [Whiskey Lactone K, 5-butyl-4-methyloxolan-2-one]
OR8B3
  Emax: 88%
OR5AU1
  Active OR/Linked Tonality: OR5AU1 (Lactonic Coconut): OR5AU1/

## C[C@@H]1[C@@H]2C[C@H](C[C@]13C=CC(=O)CC3)C2(C)C [Wolfwood, (1~{S},2~{R},3~{R},5~{R})-2,6,6-trimethylspiro[bicyclo[3.1.1]heptane-3,4′-cyclohex-2-ene]-1′-one]
OR7A17
  OR7A17 % Efficacy: 100%

## CC1(C)CCC[C@]2(C)CC(=O)CC[C@@H]12 [Z-95, (4~{a}~{S},8~{a}~{R})-5,5,8~{a}-trimethyl-3,4,4~{a},6,7,8-hexahydro-1~{H}-naphthalen-2-one]
OR7A17
  OR7A17 % Efficacy: 82%
